Assay results taken from patent US9630941B2 (priority 2008, dated 2017).

Columns and labels:
[1] = Thermal stability, 120° C. for 10 min; format: physicochemical
Procedure: C. Thermal Stability—120° C. for 10 min.

[2] = Aqueous solubility, pH dependent; format: physicochemical
[3] = Control (IPBS) stability for the buccal homogenate study; format: physicochemical
Procedure: (§1) b. Porcine Buccal Tissue Homogenate Stability
(§2) Protein Concentration 2 mg/ml

[4] = Bioreversion: plasma stability, porcine plasma; format: in vitro ADME
[5] = Porcine buccal tissue homogenate stability; format: in vitro ADME; details: protein concentration 2 mg/ml
Procedure: as §1, §2

[6] = Chemical stability pH dependent at 25° C.; format: physicochemical
Procedure: B. Chemical Stability pH Dependent at 25° C.

CCCCCc1cc(OC(=O)[C@@H](N)Cc2ccc(O)cc2)c2c(c1)OC(C)(C)[C@@H]1CCC(C)=C[C@@H]21 [THC-Tyrosinate (11), Δ^9-THC-tyrosinate]
Drug loading (%) [1]: 81.51 ± 4.28% | CBN content of the sample after heating ([1]; 120° C. for 10 min): 24.42 ± 0.21 µg | Drug remaining ([1]; 120° C. for 10 min): 1138.93 ± 60.67 µg | THC content of the sample after heating ([1]; 120° C. for 10 min): 123.75 ± 2.69 µg | Drug remaining (%) ([1]; 120° C. for 10 min, % of initial): (93.15 ± 0.06) % | CBN content of the sample, initial ([1]; before heating): 35.68 ± 1.16 µg | Initial, μg (drug itself) ([1]; before heating): 1222.61 ± 64.25 µg | THC content of the sample, initial ([1]; before heating): 92.95 ± 3.08 µg | Aqueous Solubility ([2]; pH 1.2): 41.92 ± 2.14 µg/mL | Aqueous Solubility ([2]; pH 1.2, listed as THC-Tyrosine): 87.76 ± 4.48 µM | Aqueous Solubility ([2]; pH 2): 15.76 ± 0.66 µg/mL | Aqueous Solubility ([2]; pH 2, listed as THC-Tyrosine): 33.00 ± 1.38 µM | Aqueous Solubility ([2]; pH 3): 5.28 ± 1.78 µg/mL | Aqueous Solubility ([2]; pH 3, listed as THC-Tyrosine): 11.06 ± 3.73 µM | Aqueous Solubility ([2]; pH 4): 0.73 ± 0.03 µg/mL | Aqueous Solubility ([2]; pH 4, listed as THC-Tyrosine): 1.52 ± 0.06 µM | K [3]: 1.11 ± 0.04 ×10^−3 min^−1 | K [4]: 93.53 ± 8.79 ×10^−2 min^−1 | T1/2 [4]: 0.74 ± 0.07 min | K [5]: 21.52 ± 0.55 ×10^−3 min^−1 | T1/2 [5]: 32.21 ± 0.81 min | First order rate constant ([6]; Buffer pH 5.0, 25° C.): 6.32 ± 3.14 ×10^−3 h^−1 | First order rate constant ([6]; Buffer pH 7.0, 25° C.): 25.02 ± 0.88 ×10^−3 h^−1 | First order rate constant ([6]; Buffer pH 9.0, 25° C.): 53.88 ± 11.36 ×10^−3 h^−1 | First order rate constant ([6]; Water, 25° C.): 9.40 ± 0.88 ×10^−3 h^−1
